Results: PMC8427951, “Design, synthesis, and preliminary evaluation of a potential synthetic opioid rescue agent” (Journal of Biomedical Science, 2021)
Entries after “also recorded” stand apart in the source; their conditions may differ. Read-outs that look alike come from different tables or passages of the source.

What was measured:
C57BL/6J mice [1] = test: Hot plate assay, oxycodone-induced thermal antinociception; type: in vivo
[2] = Brain biodistribution study after IP dosing; type: in vivo, C57BL/6J mice; conditions: male, C57BL/6J, mouse, 2 mg/kg
Experimental: (§1) Adult male C57BL/6J mice were purchased from Jackson Laboratories (Bar Harbor, ME). The animals were housed in polyethylene cages and given food and water ad libitum. Animals were administered 29 by intravenous, oral gavage or intraperitoneal (IV, PO or IP injection). Two groups of mice (n = 3/group) were sampled three times each via the saphenous vein. Whole blood samples were collected into heparinized pipet tips, centrifuged at 4300×g for 2 min to isolate plasma and transferred onto dry ice. Plasma samples were stored at − 80 °C until processing. Separately, for brain biodistribution studies, five mice per time-point were administered 29 via the IP route and a single blood sample was collected from each animal via intracardiac puncture prior to perfusing with ice-cold saline for 5 min before removing the brain. All animal procedures were conducted in accordance with The Guide for the Care and Use of Laboratory Animals (National Academic Press, 1996) and approved by the IACUC (Institutional Animal Care and Use Committee) at the University of Kentucky and at the Rockefeller University.
Brains were excised and sectioned at the sagittal plane. Half of the brain from each animal was homogenized (1:1, w/v) with phosphate buffered saline. […] Proteins were precipitated by addition of 80 µL of 0.1% formic acid. Samples were vortex mixed (10 s) and stored at − 20 °C for 20 min prior to centrifugation at 13,000×g for 15 min at 4 °C. The resulting supernatants were collected into amber HPLC vials fitted with 200 µL glass inserts and immediately analyzed for analyte content by LC/MS–MS.
(§2) For the analysis of total amount of 29 in the plasma samples, calibration curve was generated with 29 drug spiked to mouse blank plasma. Calibrators (0.25–1000 ng/mL) were prepared by the addition of 5 µL of appropriate spiking solution into 100 µL blank plasma followed by vortex mixing. Quality control samples (0.75, 25, 500, 850 ng/mL) were prepared from an independent second stock in a similar fashion. For the analysis of 29 in brain tissue samples, calibration curve was generated with 29 drug spiked to blank mouse brain tissue homogenate using a calibration curve (0.5–372 ng/mL) and quality control samples (0.75, 13.3, 25, 266 ng/mL). The limit of quantitation for plasma was 0.4 ng/mL and for brain tissue 1 ng/mL.
(§3) Analyte and internal standard contained in 4 µL sample injections were eluted from a Waters XBridge C18 (3.5µ, 4.6 × 150 mm; oven temp. 40 °C) analytical column with a 0.1% formic acid in water (Mobile Phase-A): 0.1% formic acid in acetonitrile (Mobile Phase-B) gradient. […] The 90% Mobile Phase-B was maintained for 2.5 min before returning to the initial 35% over a 0.1 min linear ramp. […] The total run time was 7.5 min. Positive-mode ESI Turbo V® source and MS gas, temperature and voltage potential settings were based on optimized parameters determined prior to analysis using infusions of 1000 ng/mL drug standards in 50:50 mobile phase mixture mixed with LC effluent for a total 0.6 mL/min flow rate. Flow-dependent parameters were: CUR = 35/ISV = 5500/TEM = 550/GS1 = 65/GS2 = 65/Horizontal probe position = 7/Vertical probe position = 0.5). […] Calibrators, quality control samples and experimental sample sequences consisted of single randomized experimental sample injections flanked by sets of blanks, and calibrators. A calibration curve was constructed by weighted (1/x^2) polynomial regression analysis of analyte concentration to analyte peak area using GraphPad Prism software (Ver 8.4.3).
(§4) All data sets were analyzed using Phoenix WinNonlin (Certara). A 2-compartment mammillary model was simultaneously fitted to all plasma concentrations obtained from intravenous, oral, and intraperitoneal administration of 29. The oral and intraperitoneal bioavailability was also estimated. Parameters were estimated using population modeling with quasi-random parameter estimation method (QRPEM). […]

C57BL/6J mice [3] = test: Locomotor activity assay, deficits caused by KOR agonist U50,488; type: in vivo
Experimental: These studies (in C57BL/6J mice from the Jackson Laboratory) focused on the effectiveness of 29 in preventing decreases in locomotor activity caused by the KOR agonist U50,488 (10 mg/kg, IP) over 90 min. This dose and duration of monitoring period was based on recently published studies. Mice were placed individually in rectangular transparent plastic cages (19.7 cm width × 41.3 cm length × 20.3 cm height) with bedding identical to that in the home cage. Each cage was in a photocell frame with an array of perpendicular photocell beams (SmartFrame; Kinder Scientific, Poway, CA). Beam breaks caused by the mouse were quantified through a computer interface. Mice were habituated to this apparatus for a 60-min session. Consecutive experiments in the same mice were separated by at least 72 h. Vehicle or 29 was injected 30 min prior to U50,488 (10 mg/kg). Immediately after the U50,488 injection, each mouse was placed in a locomotor activity cage for a 90-min period.
The locomotor activity data were analyzed as beam breaks over 15-min bins. Data were analyzed with 2-way repeated measures or mixed effects ANOVAs, followed by appropriate post-hoc tests (GraphPad Prism software).

[4] = Pharmacokinetic study, plasma (IV, PO, IP); type: in vivo, C57BL/6J mice; conditions: for half-life / Tmax / bioavailability / AUC: plasma; for AUC: NCA
Experimental: as §1
Experimental plasma samples were thawed at 37 °C for 3 min and vortex mixed. […] Samples were vortex mixed, then treated with 4× volume (60 µL) of 0.1% formic acid in methanol to precipitate proteins. The samples were vortex mixed (5 s) then centrifuged at 13,000×g for 15 min at 4 °C. The resulting supernatants were collected into amber HPLC vials fitted with 200 µL glass inserts and immediately analyzed for analyte content by LC/MS–MS.
as §2, §3, §4

[5] = male, C57BL/6J, mouse, IP, 2 mg/kg
[6] = male, C57BL/6J, mouse, IV, 2 mg/kg
[7] = male, C57BL/6J, mouse, PO, 5 mg/kg

Question: Which “time of peak effects after injection” value (C57BL/6J mice [1]; oxycodone 5.6 mg/kg IP) does the source give for `COc1ccc2c3c1O[C@H]1C(=O)CC[C@@]4(O)[C@@H](C2)N(C)CC[C@]314` [Oxycodone, oxycodone, reference compound] here?
Answer: Its value is 15 min.

Question: What about the antinociceptive effect (C57BL/6J mice [1]; oxycodone 5.6 mg/kg IP, 30 min after vehicle pretreatment) of the same compound?
Answer: The antinociceptive effect was “near-maximal antinociceptive effect”.

Question: Which half-life ([2]; brain, ip, IP dosing, brain, mice, read-out: apparent terminal half-life in the brain) does the source give for `C=C1CC[C@@]2(OCCC)[C@H]3Cc4ccc(O)c5c4[C@@]2(CCN3CC2CC2)[C@H]1O5` [Compound 29] here?
Answer: Its half-life is roughly 80 min.

Question: What about the Tmax ([2]; brain, ip, IP dosing, brain, read-out: Tmax in brain (converted)) of the same compound?
Answer: Its Tmax is roughly 20 min.

Question: What about the half-life ([2]; brain, ip, IP, brain, read-out: Apparent half-life, t½ (converted)) of the same compound?
Answer: The half-life was 80.4 min.

Question: What about the Tmax ([2]; brain, ip, IP, brain, read-out: Tmax) of the same compound?
Answer: The Tmax was 19.2 min.

Question: What about the Kp ([2]; brain, ip, read-out: partition coefficient, Kp,brain) of the same compound?
Answer: The Kp was 1.6.

Question: And the half-life ([2]; plasma, ip, IP dosing, plasma, read-out: apparent terminal half-life in plasma)?
Answer: Its half-life is 55 min.

Question: And the AUC ([2]; IP, brain, NCA)?
Answer: The AUC was 0.634 µM·h.

Question: What about the “blockade of locomotor effects of U50,488” value (C57BL/6J mice [3]; 29 0.1 mg/kg IP, 30 min before U50,488 10 mg/kg) of the same compound?
Answer: Its value is “ineffective; also recorded: did not cause any apparent blockade”.

Question: What about the “blockade of locomotor depressant effects of U50,488” value (C57BL/6J mice [3]; 29 1 mg/kg IP, 30 min before U50,488 10 mg/kg) of the same compound?
Answer: Its value is “did block the locomotor depressant effects; also recorded: able to prevent locomotor deficits”.

Question: And the “effect on locomotor activity alone” value (C57BL/6J mice [3]; 29 1 mg/kg alone, compared to a vehicle injection)?
Answer: Its value is “did not cause significant effects on locomotor activity”.

Question: And the CL2 ([4]; 2-compartment model)?
Answer: Its CL2 is 174 mL/min/kg.

Question: What about the V2 ([4]; 2-compartment model) of the same compound?
Answer: Its V2 is 6.07 L/kg.

Question: And the V ([4]; 2-compartment model fitted to IV, PO and IP plasma concentrations)?
Answer: The V was 5.36 L/kg.

Question: And the “FIP (bioavailability following IP administration)” value ([4]; 2-compartment model, IP 2 mg/kg, 2 mg/kg)?
Answer: Its value is 99.5%.

Question: And the “Ka,ip” value ([4]; 2-compartment model, intraperitoneal absorption)?
Answer: Its value is 7.53 h⁻¹.

Question: And the “Ka,po” value ([4]; 2-compartment model, oral absorption)?
Answer: The value was 7.91 h⁻¹.

Question: What about the “time of measurable plasma concentrations” value ([4]; IP dosing) of the same compound?
Answer: The value was “at least 6 h”.

Question: What about the “time plasma concentrations were above the lower quantitation limit” value ([4]; following IV and PO dosing) of the same compound?
Answer: The value was 2 h.

Question: And the half-life ([4]; male, C57BL/6J, mouse, intraperitoneal, 2 mg/kg, mice, read-out: plasma half-life (converted))?
Answer: Its half-life is 54 min.

Question: And the clearance ([4]; male, C57BL/6J, mouse, intraperitoneal, 2-compartment model fitted to IV, PO and IP plasma concentrations)?
Answer: The clearance was 202 mL/min/kg.

Question: And the Tmax ([4]; male, C57BL/6J, mouse, intraperitoneal, PO and IP administration)?
Answer: The Tmax was no more than 10 min.

Question: What about the half-life ([4]; male, C57BL/6J, mouse, intravenous, oral, intraperitoneal, mice, read-out: plasma half-life (converted)) of the same compound?
Answer: Its half-life is 36 to 60 min.

Question: And the bioavailability ([4]; male, C57BL/6J, mouse, ip, 2 mg/kg, 2-compartment model, IP 2 mg/kg, read-out: FIP (bioavailability following IP administration))?
Answer: The bioavailability was roughly 100%.

Question: And the bioavailability ([4]; male, C57BL/6J, mouse, po, 5 mg/kg, 2-compartment model, PO 5 mg/kg, read-out: Fpo (oral bioavailability))?
Answer: The bioavailability was roughly 6.6%.

Question: And the Tmax [4, 5]?
Answer: The Tmax was 7.2 min.

Question: What about the AUC [4, 5] of the same compound?
Answer: Its AUC is 0.397 µM·h.

Question: What about the half-life ([4]; male, C57BL/6J, mouse, IP, 2 mg/kg, read-out: Apparent half-life, t½ (converted)) of the same compound?
Answer: Its half-life is 56.4 min.

Question: What about the Tmax [4, 6] of the same compound?
Answer: Its Tmax is 4.8 min.

Question: And the AUC [4, 6]?
Answer: The AUC was 0.207 µM·h.

Question: And the half-life ([4]; male, C57BL/6J, mouse, IV, 2 mg/kg, read-out: Apparent half-life, t½ (converted))?
Answer: Its half-life is 34.8 min.

Question: And the Tmax [4, 7]?
Answer: Its Tmax is 6 min.

Question: And the AUC [4, 7]?
Answer: The AUC was 0.064 µM·h.

Question: What about the half-life ([4]; male, C57BL/6J, mouse, PO, 5 mg/kg, read-out: Apparent half-life, t½ (converted)) of the same compound?
Answer: The half-life was 59.4 min.

Question: And the “duration of MOR antagonist action (lower bound)” value (C57BL/6J mice [1]; 0.1 mg/kg IP)?
Answer: The value was “at least 240 min”.

Question: And the “duration of action (upper bound)” value (C57BL/6J mice [1]; 0.1 mg/kg IP)?
Answer: Its value is “less than 24 h”.

Question: And the “prevention of oxycodone-induced antinociception” value (C57BL/6J mice [1]; 29 0.1 mg/kg IP, 30 min before oxycodone 5.6 mg/kg IP)?
Answer: The value was “fully effective; also recorded: complete prevention”.

Question: What about the “prevention of peak antinociceptive effects of oxycodone (time course)” value (C57BL/6J mice [1]; 29 0.1 mg/kg IP, pretreatment 15, 30, 120 and 240 min before oxycodone 5.6 mg/kg, measured 15 min after oxycodone) of the same compound?
Answer: The value was “significantly prevent”.

Question: What about the “prevention of oxycodone-induced antinociception (dose-dependence)” value (C57BL/6J mice [1]; 29 0.01–0.1 mg/kg IP, 30 min before oxycodone 5.6 mg/kg IP) of the same compound?
Answer: The value was “dose-dependently; also recorded: dose-dependent prevention”.

Question: What about the “onset of antagonist action” value (C57BL/6J mice [1]; after IP injection, 0.1 mg/kg) of the same compound?
Answer: The value was no more than 15 min.
